From patent publication US20250089707A1, “ECO-FRIENDLY QUARANTINE COMPOSITION HAVING FUNCTION OF KILLING PHOSPHOLIPID ENVELOPED VIRUS” (priority 2022, published 2025) come the findings set out here.

Molecules are shown by their SMILES. Where only a bound is given, the exact number is not on record here.

One experiment has as its system Bacillus subtilis. Description: Antibacterial activity, paper disc method.
Experiment [1] relates to human bronchial epithelial cells (BEAS-2B). Briefly: Cytotoxicity, MTT, BEAS-2B. As to conditions: 24 hours treatment.
The next experiment relates to Escherichia coli. Briefly: Antibacterial activity, paper disc method.
In the next experiment the test system is Streptococcus mutans. Briefly: Antibacterial activity, paper disc method.
For experiment [2], the system named is Staphylococcus epidermidis. Briefly: Antibacterial activity, paper disc method.
The subject of experiment [3] is human epithelial keratinocyte cells (HaCaT). Briefly: Cytotoxicity, MTT, HaCaT. Conditions: 24 hours treatment.
The next experiment relates to Staphylococcus aureus. Briefly: Antibacterial activity, paper disc method.
The subject of the next experiment is Pseudomonas aeruginosa. Briefly: Antibacterial activity, paper disc method.
The test system of the next experiment is Salmonella typhimurium. Description: Antibacterial activity, paper disc method.
Experiment [4] deals with human monocyte cells (THP-1). Briefly: Cytotoxicity, MTT, THP-1. Conditions: THP-1, 24 hours treatment.

Turning to `CCCCCCCCCCCCCCCCCC(=O)[O-].[Na+]` [Example P-3, Sodium stearate], the MIC (against Bacillus subtilis; in the experiment with Escherichia coli; against Streptococcus mutans; in experiment [2]; against Staphylococcus aureus; in the experiment with Pseudomonas aeruginosa) was at least 100 μg/50 μl each time. In the experiment on Salmonella typhimurium, this molecule had an MIC of at least 100 μg/50 μl. Also, the “IC50 value (%)” value turned out to be 0.00969% in [1], 0.005292% in experiment [3] and 0.4165% in [4].
